Reference: article PMC8398847, “Isavuconazole: Thermodynamic Evaluation of Processes Sublimation, Dissolution and Partition in Pharmaceutically Relevant Media” (Molecules, 2021)

Assay: Dissolution thermodynamics: ideal solubility, activity coefficients at infinite dilution, excess functions
Assay type: physicochemical
From the text: The temperature dependence of solute solubility is described by the thermodynamic relationship:(26) lnx=lnxid−lnγ=ΔmH/RT[T−Tm/T]+∫TmT∫TmT(CpL−CpS)dT/RT^2−lnγ where x, xid, γ, Tm, ΔmH, ΔCp=CpL−CpS , R, and T represent the solubility mole fraction of the solute in solution, ideal mole fraction solubility of the solute, activity coefficient of the solute in solution, melting temperature of the solute, enthalpy of melting of the pure solute, differential molar heat capacity of the pure solute, gas constant and temperature, respectively. If the solubility or equilibrium mole fraction of a compound in solvents studied is low, it is assumed that the last term in Equation (26) denotes the infinite dilution activity coefficient lnγ^∞, which can be expressed as:(27) lnγ∞=ΔHsolE/RT−ΔSsolE/R where ΔHsolE and ΔSsolE represent the partial molar excess enthalpy, and partial molar excess entropy, respectively, and are assumed to be temperature independent. As the quantity ΔCp is assumed to be negligible and considered to be zero [52], substituting ΔCp = 0 into Equation (26) simplifies to (28) lnxid=−ΔHm/RTmln[Tm/T]

For `C[C@@H](c1nc(-c2ccc(C#N)cc2)cs1)[C@](O)(Cn1cncn1)c1cc(F)ccc1F` [IVZ, Isavuconazole], which “lnγ^∞” value (1-octanol, 293.15 K) is on record?
The value was 2.40.

What about the “G^E” value (1-octanol, 298.15 K) of the same compound?
Its value is 5.85 ± 0.2 kJ/mol.

What about the “H^E” value (1-octanol, 298.15 K) of the same compound?
Its value is 3.62 ± 0.1 kJ/mol.

What about the “S^E” value (1-octanol, 298.15 K) of the same compound?
The value was −7.5 ± 0.3 J·mol^−1·K^−1.

And the “TS^E” value (1-octanol, 298.15 K)?
Its value is -2.23 kJ/mol.

What about the “lnγ^∞” value (1-octanol, 298.15 K) of the same compound?
Its value is 2.36.

What about the “ςH^E” value (1-octanol, 298.15 K) of the same compound?
The value was 61.9%.

And the “ςTS^E” value (1-octanol, 298.15 K)?
Its value is 38.1%.

And the “lnγ^∞” value (1-octanol, 303.15 K)?
Its value is 2.34.

And the “lnγ^∞” value (1-octanol, 308.15 K)?
The value was 2.32.

What about the “lnγ^∞” value (1-octanol, 313.15 K) of the same compound?
The value was 2.30.

And the “lnγ^∞” value (1-propanol, 293.15 K)?
Its value is 2.16.

What about the “G^E” value (1-propanol, 298.15 K) of the same compound?
Its value is 5.25 ± 0.2 kJ/mol.

And the “H^E” value (1-propanol, 298.15 K)?
Its value is 4.97 ± 0.1 kJ/mol.

And the “S^E” value (1-propanol, 298.15 K)?
Its value is −0.9 ± 0.04 J·mol^−1·K^−1.

And the “TS^E” value (1-propanol, 298.15 K)?
The value was -0.28 kJ/mol.

What about the “lnγ^∞” value (1-propanol, 298.15 K) of the same compound?
The value was 2.12.

What about the “ςH^E” value (1-propanol, 298.15 K) of the same compound?
The value was 94.7%.

And the “ςTS^E” value (1-propanol, 298.15 K)?
Its value is 5.3%.

And the “lnγ^∞” value (1-propanol, 303.15 K)?
The value was 2.09.

And the “lnγ^∞” value (1-propanol, 308.15 K)?
The value was 2.06.

What about the “lnγ^∞” value (1-propanol, 313.15 K) of the same compound?
Its value is 2.03.

And the “lnγ^∞” value (buffer pH 1.2, 293.15 K)?
Its value is 11.51.

And the “G^E” value (buffer pH 1.2, 298.15 K)?
Its value is 28.6 ± 0.5 kJ/mol.

What about the “H^E” value (buffer pH 1.2, 298.15 K) of the same compound?
Its value is -6.43 ± 0.1 kJ/mol.

What about the “S^E” value (buffer pH 1.2, 298.15 K) of the same compound?
Its value is −117.5 ± 4.1 J·mol^−1·K^−1.

And the “TS^E” value (buffer pH 1.2, 298.15 K)?
Its value is -35.03 kJ/mol.

What about the “lnγ^∞” value (buffer pH 1.2, 298.15 K) of the same compound?
The value was 11.55.

What about the “ςH^E” value (buffer pH 1.2, 298.15 K) of the same compound?
The value was 15.3%.

What about the “ςTS^E” value (buffer pH 1.2, 298.15 K) of the same compound?
Its value is 84.7%.

What about the “lnγ^∞” value (buffer pH 1.2, 303.15 K) of the same compound?
The value was 11.59.

What about the “lnγ^∞” value (buffer pH 1.2, 308.15 K) of the same compound?
Its value is 11.64.

What about the “lnγ^∞” value (buffer pH 1.2, 313.15 K) of the same compound?
Its value is 11.67.

What about the “lnγ^∞” value (buffer pH 2.0, 293.15 K) of the same compound?
Its value is 12.82.

And the “G^E” value (buffer pH 2.0, 298.15 K)?
The value was 31.7 ± 0.6 kJ/mol.

And the “H^E” value (buffer pH 2.0, 298.15 K)?
The value was 5.20 ± 0.3 kJ/mol.

And the “S^E” value (buffer pH 2.0, 298.15 K)?
Its value is −88.9 ± 5.1 J·mol^−1·K^−1.

And the “TS^E” value (buffer pH 2.0, 298.15 K)?
Its value is -26.50 kJ/mol.

What about the “lnγ^∞” value (buffer pH 2.0, 298.15 K) of the same compound?
Its value is 12.80.

And the “ςH^E” value (buffer pH 2.0, 298.15 K)?
Its value is 16.4%.

What about the “ςTS^E” value (buffer pH 2.0, 298.15 K) of the same compound?
Its value is 83.6%.

And the “lnγ^∞” value (buffer pH 2.0, 303.15 K)?
The value was 12.76.

What about the “lnγ^∞” value (buffer pH 2.0, 308.15 K) of the same compound?
Its value is 12.72.

What about the “lnγ^∞” value (buffer pH 2.0, 313.15 K) of the same compound?
The value was 12.69.

What about the “lnγ^∞” value (buffer pH 7.4, 293.15 K) of the same compound?
The value was 13.26.

What about the “G^E” value (buffer pH 7.4, 298.15 K) of the same compound?
Its value is 32.7 ± 0.6 kJ/mol.

What about the “H^E” value (buffer pH 7.4, 298.15 K) of the same compound?
The value was 7.10 ± 0.1 kJ/mol.

What about the “S^E” value (buffer pH 7.4, 298.15 K) of the same compound?
The value was −85.9 ±2.9 J·mol^−1·K^−1.

What about the “TS^E” value (buffer pH 7.4, 298.15 K) of the same compound?
Its value is -25.6 kJ/mol.

What about the “lnγ^∞” value (buffer pH 7.4, 298.15 K) of the same compound?
Its value is 13.21.

And the “ςH^E” value (buffer pH 7.4, 298.15 K)?
Its value is 21.7%.

What about the “ςTS^E” value (buffer pH 7.4, 298.15 K) of the same compound?
Its value is 78.3%.

What about the “lnγ^∞” value (buffer pH 7.4, 303.15 K) of the same compound?
Its value is 13.15.

What about the “lnγ^∞” value (buffer pH 7.4, 308.15 K) of the same compound?
The value was 13.11.

What about the “lnγ^∞” value (buffer pH 7.4, 313.15 K) of the same compound?
Its value is 13.08.

And the “entropy term ζTS^E” value (buffer solutions)?
Its value is greater than 78%.

What about the “lnγ^∞” value (ethanol, 293.15 K) of the same compound?
The value was 2.00.

And the “G^E” value (ethanol, 298.15 K)?
The value was 4.83 ± 0.1 kJ/mol.

What about the “H^E” value (ethanol, 298.15 K) of the same compound?
Its value is 7.21 ± 0.1 kJ/mol.

And the “S^E” value (ethanol, 298.15 K)?
The value was 8.0 ± 0.3 J·mol^−1·K^−1.

And the “TS^E” value (ethanol, 298.15 K)?
The value was 2.38 kJ/mol.

And the “lnγ^∞” value (ethanol, 298.15 K)?
The value was 1.95.

And the “ςH^E” value (ethanol, 298.15 K)?
The value was 75.2%.

What about the “ςTS^E” value (ethanol, 298.15 K) of the same compound?
Its value is 24.8%.

And the “lnγ^∞” value (ethanol, 303.15 K)?
The value was 1.91.

And the “lnγ^∞” value (ethanol, 308.15 K)?
The value was 1.86.

And the “lnγ^∞” value (ethanol, 313.15 K)?
Its value is 1.81.

What about the “lnγ^∞” value (hexane, 293.15 K) of the same compound?
Its value is 7.12.

And the “G^E” value (hexane, 298.15 K)?
Its value is 17.4 ± 0.3 kJ/mol.

What about the “H^E” value (hexane, 298.15 K) of the same compound?
The value was 12.69 ± 0.1 kJ/mol.

What about the “S^E” value (hexane, 298.15 K) of the same compound?
The value was −15.8 ± 0.4 J·mol^−1·K^−1.

And the “TS^E” value (hexane, 298.15 K)?
The value was -4.71 kJ/mol.

And the “lnγ^∞” value (hexane, 298.15 K)?
Its value is 7.03.

What about the “ςH^E” value (hexane, 298.15 K) of the same compound?
Its value is 72.9%.

And the “ςTS^E” value (hexane, 298.15 K)?
Its value is 27.1%.

And the “lnγ^∞” value (hexane, 303.15 K)?
The value was 6.95.

What about the “lnγ^∞” value (hexane, 308.15 K) of the same compound?
Its value is 6.86.

What about the “lnγ^∞” value (hexane, 313.15 K) of the same compound?
The value was 6.79.
